Here are results for 17 compounds from ChEMBL document CHEMBL1131906, “Synthesis and structure-activity relationships of new second-generation taxoids” (Bioorg Med Chem Lett, 1999).

Assay [1] has as its system MCF7. Kind of assay: Inhibitory activity against the growth of MCF-7R ( multi drug resistant human breast carcinoma) cell line after 72 hours of drug exposure. It counts as functional, cell-based. As to conditions: MCF7, 72 h.
The test system of assay [2] is MCF7. Description: Inhibitory activity against the growth of MCF-7 (human breast carcinoma) cell line after 72 hours of drug exposure. As to conditions: MCF7, 72 h. Format: functional, cell-based.
Assay [3] can be described thus: Inhibitory activity against the growth of LCC6-WT (human breast carcinoma) cell line after 72 hours of drug exposure. Format: functional.
Assay [4] in a line: Inhibitory activity against the growth of LCC6-MDR (Multi Drug Resistant 1 transduced line) cell line after 72 hours of drug exposure. Format: functional. The following applies: Homo sapiens, LCC6MDR.
Assay [5] has as its system MCF7. Kind of assay: Ratio of activities, drug resistant (R) to drug sensitive (S) carcinoma cell lines. Format: functional, Homo sapiens.

One may read the IC50 as the concentration that inhibits the measured activity by half. Higher therefore signals weaker potency.

`CCC(=O)O[C@H]1C(=O)[C@@]2(C)C([C@H](OC(=O)c3cccc(OC)c3)[C@]3(O)C[C@H](OC(=O)[C@H](O)[C@@H](NC(=O)OC(C)(C)C)[C@H]4CC4(C)C)C(C)=C1C3(C)C)[C@]1(OC(C)=O)CO[C@@H]1C[C@@H]2O` (some centres undefined): the concentration for half-maximal inhibition (IC50) in the assay on MCF7 [1] is 1.5 nM; in the assay on MCF7 [2] it was 0.6 nM; in assay [3] it was 0.48 nM.
With `CCC(=O)O[C@H]1C(=O)[C@@]2(C)C([C@H](OC(=O)c3cccc(F)c3)[C@]3(O)C[C@H](OC(=O)[C@H](O)[C@H](C=C(C)C)NC(=O)OC(C)(C)C)C(C)=C1C3(C)C)[C@]1(OC(C)=O)CO[C@@H]1C[C@@H]2O` (some centres undefined), half-maximal inhibition in assay [3] (IC50) required 0.5 nM. That is a sub-nanomolar value.
For `COc1cccc(C(=O)O[C@H]2C3[C@](C)(C(=O)[C@H](OC(C)=O)C4=C(C)[C@@H](OC(=O)[C@H](O)[C@H](C=C(C)C)NC(=O)OC(C)(C)C)C[C@]2(O)C4(C)C)[C@@H](O)C[C@H]2OC[C@@]32OC(C)=O)c1` (some centres undefined), the half-maximal inhibitory concentration (IC50) was 2.3 nM in the assay on MCF7 [1], 0.8 nM in the assay on MCF7 [2] and 0.6 nM in assay [3].
For the compound `CCC(=O)O[C@H]1C(=O)[C@@]2(C)C([C@H](OC(=O)c3cccc(OC)c3)[C@]3(O)C[C@H](OC(=O)[C@H](O)[C@@H](NC(=O)OC(C)(C)C)C(F)F)C(C)=C1C3(C)C)[C@]1(OC(C)=O)CO[C@@H]1C[C@@H]2O` (some centres undefined), the half-maximal inhibitory concentration (IC50) worked out at 4.3 nM in the assay with MCF7 [1], 0.4 nM in the assay with MCF7 [2] and 1.5 nM in assay [3].
As to `COc1cccc(C(=O)O[C@H]2C3[C@](C)(C(=O)[C@H](OC(=O)C4CC4)C4=C(C)[C@@H](OC(=O)[C@H](O)[C@H](C=C(C)C)NC(=O)OC(C)(C)C)C[C@]2(O)C4(C)C)[C@@H](O)C[C@H]2OC[C@@]32OC(C)=O)c1` (some centres undefined), the concentration for half-maximal inhibition (IC50) in assay [4] turned out to be 2.9 nM; in assay [3] it was 1 nM. The Ratio in the assay on MCF7 [5] amounted to 2.9.
With `C=CCC[C@H](NC(=O)OC(C)(C)C)[C@@H](O)C(=O)O[C@H]1C[C@@]2(O)[C@@H](OC(=O)c3cccc(OC)c3)C3[C@](C)(C(=O)[C@H](OC(=O)CC)C(=C1C)C2(C)C)[C@@H](O)C[C@H]1OC[C@@]31OC(C)=O` (some centres undefined), the IC50 in the assay with MCF7 [1] is 7.7 nM; in the assay with MCF7 [2] it was 2 nM; in assay [3] it was 0.9 nM.
As for `CCC(=O)O[C@H]1C(=O)[C@@]2(C)C([C@H](OC(=O)c3cccc(F)c3)[C@]3(O)C[C@H](OC(=O)[C@H](O)[C@H](CC(C)C)NC(=O)OC(C)(C)C)C(C)=C1C3(C)C)[C@]1(OC(C)=O)CO[C@@H]1C[C@@H]2O` (some centres undefined), in assay [3], the IC50 amounted to 0.4 nM. This counts as sub-nanomolar.
`C/C=C\[C@H](NC(=O)OC(C)(C)C)[C@@H](O)C(=O)O[C@H]1C[C@@]2(O)[C@@H](OC(=O)c3cccc(OC)c3)C3[C@](C)(C(=O)[C@H](OC(=O)CC)C(=C1C)C2(C)C)[C@@H](O)C[C@H]1OC[C@@]31OC(C)=O` (some centres undefined) showed an IC50 in assay [3] of 1.2 nM.
On to `CCC(=O)O[C@H]1C(=O)[C@@]2(C)C([C@H](OC(=O)c3cccc(Cl)c3)[C@]3(O)C[C@H](OC(=O)[C@H](O)[C@H](C=C(C)C)NC(=O)OC(C)(C)C)C(C)=C1C3(C)C)[C@]1(OC(C)=O)CO[C@@H]1C[C@@H]2O` (some centres undefined), for which the IC50 in assay [3] amounted to 0.8 nM.
For the compound `CCC(=O)O[C@H]1C(=O)[C@@]2(C)C([C@H](OC(=O)c3cccc(N=[N+]=[N-])c3)[C@]3(O)C[C@H](OC(=O)[C@H](O)[C@H](CC(C)C)NC(=O)OC(C)(C)C)C(C)=C1C3(C)C)[C@]1(OC(C)=O)CO[C@@H]1C[C@@H]2O` (some centres undefined), the figures for the IC50 (with MCF7 [1]; with MCF7 [2]; in assay [3]) were 2.1 nM, 1 nM and 1.1 nM, respectively.
The corresponding values for `CCC(=O)O[C@H]1C(=O)[C@@]2(C)C([C@H](OC(=O)c3cccc(OC)c3)[C@]3(O)C[C@H](OC(=O)[C@H](O)[C@H](C=C(C)C)NC(=O)OC(C)(C)C)C(C)=C1C3(C)C)[C@]1(OC(C)=O)CO[C@@H]1C[C@@H]2O` (some centres undefined) are 0.33 nM, 0.36 nM and 1 nM.
Regarding `C=CC[C@H](NC(=O)OC(C)(C)C)[C@@H](O)C(=O)O[C@H]1C[C@@]2(O)[C@@H](OC(=O)c3cccc(OC)c3)C3[C@](C)(C(=O)[C@H](OC(=O)CC)C(=C1C)C2(C)C)[C@@H](O)C[C@H]1OC[C@@]31OC(C)=O` (some centres undefined), the figures for the IC50 (with MCF7 [1]; in the assay with MCF7 [2]; in assay [3]) were 8.7 nM, 0.8 nM and 1.2 nM, respectively.
Take `CC(=O)O[C@H]1C(=O)[C@@]2(C)C([C@H](OC(=O)c3cccc(C)c3)[C@]3(O)C[C@H](OC(=O)[C@H](O)[C@H](C=C(C)C)NC(=O)OC(C)(C)C)C(C)=C1C3(C)C)[C@]1(OC(C)=O)CO[C@@H]1C[C@@H]2O` (some centres undefined): the IC50 is 5 nM in the assay on MCF7 [1], 0.8 nM in the assay with MCF7 [2] and 1.5 nM in assay [3].
As for `C=Cc1cccc(C(=O)O[C@H]2C3[C@](C)(C(=O)[C@H](OC(=O)CC)C4=C(C)[C@@H](OC(=O)[C@H](O)[C@H](C=C(C)C)NC(=O)OC(C)(C)C)C[C@]2(O)C4(C)C)[C@@H](O)C[C@H]2OC[C@@]32OC(C)=O)c1` (some centres undefined), the IC50 in assay [3] was found to be 2.9 nM.
For the compound `CCC(=O)O[C@H]1C(=O)[C@@]2(C)C([C@H](OC(=O)c3cccc(N=[N+]=[N-])c3)[C@]3(O)C[C@H](OC(=O)[C@H](O)[C@H](C=C(C)C)NC(=O)OC(C)(C)C)C(C)=C1C3(C)C)[C@]1(OC(C)=O)CO[C@@H]1C[C@@H]2O` (some centres undefined), the IC50 with MCF7 [1] came to 1.1 nM; with MCF7 [2], 0.9 nM; in assay [3] it was 0.9 nM.
For the compound `CC(=O)O[C@@]12CO[C@@H]1C[C@H](O)[C@@]1(C)C(=O)[C@H](O)C3=C(C)[C@@H](OC(=O)[C@H](O)[C@@H](NC(=O)OC(C)(C)C)c4ccccc4)C[C@@](O)([C@@H](OC(=O)c4ccccc4)[C@H]21)C3(C)C.O.O.O` [DOCETAXEL], the IC50 in assay [4] came out at 120 nM; in assay [3] it was 1 nM.
Take `CC(=O)O[C@H]1C(=O)[C@@]2(C)[C@H]([C@H](OC(=O)c3ccccc3)[C@]3(O)C[C@H](OC(=O)[C@H](O)[C@@H](NC(=O)c4ccccc4)c4ccccc4)C(C)=C1C3(C)C)[C@]1(OC(C)=O)CO[C@@H]1C[C@@H]2O` [PACLITAXEL]: the IC50 came out at 346 nM in assay [4] and 3.1 nM in assay [3].
